Data: the supplement of paper PMC11061612

How the values were obtained:
Test in all cases: Bliss excess, mean over the matrix (fraction); higher = more synergy
[1] = test system: OVKATE (Ovarian Carcinoma)
Method in brief: (§1)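 Bliss excess equals the observed combination effect minus the expected value EA + EB − EA·EB, where EA and EB are the effects of each agent alone. Combination Emax is the second-highest inhibition within the matrix. Inhibition was scaled from CellTiter-Glo 2.0 luminescence, with 0 set by vehicle wells and 1 by blank wells, after 72 hours of two-drug dosing of cells plated in 1536-well plates.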

[2] = test system: BC-1 (B-Cell Non-Hodgkin's Lymphoma)
Method in brief: as §1

A375 (Melanoma) = test system: A375 (Melanoma)
Method in brief: as §1

[3] = test system: RPMI-8402 (T-Lymphoblastic Leukemia)
Method in brief: as §1

[4] = test system: KNS-62 (Squamous Cell Lung Carcinoma)
Method in brief: as §1

[5] = test system: SW1463 (Colorectal Carcinoma)
Method in brief: as §1

[6] = test system: SBC-3 (Small Cell Lung Carcinoma)
Method in brief: as §1

SK-MEL-24 (Melanoma) = test system: SK-MEL-24 (Melanoma)
Method in brief: as §1

Compound | Bliss excess [1] | Bliss excess [2] | Bliss excess (A375 (Melanoma)) | Bliss excess [3] | Bliss excess [4] | Bliss excess [5] | Bliss excess [6] | Bliss excess (SK-MEL-24 (Melanoma))
N#Cc1cnc(Nc2cc(NC[C@H]3CNCCO3)c(C(F)(F)F)cn2)cn1 [SRA737] + Nc1ccn([C@@H]2O[C@H](CO)[C@@H](O)C2(F)F)c(=O)n1 [Gemcitabine] (first compound max 10 µM, 7x7, partner max 0.3 µM) | 0.0092 | 0.0426 | 0.0398 | 0.0312 | 0.0488 | 0.0633 | 0.0064 | 0.0307
N#Cc1cnc(Nc2cc(NC[C@H]3CNCCO3)c(C(F)(F)F)cn2)cn1 [SRA737] + CCc1c2c(nc3ccc(O)cc13)-c1cc3c(c(=O)n1C2)COC(=O)[C@]3(O)CC [SN-38] (first compound max 10 µM, 7x7, partner max 0.3 µM) | -0.045 | -0.0242 | -0.0288 | -0.0209 | -0.0387 | 0.0621 | -0.0632 | -0.0221
N#Cc1cnc(Nc2cc(NC[C@H]3CNCCO3)c(C(F)(F)F)cn2)cn1 [SRA737] + O=c1[nH]cc(F)c(=O)[nH]1 [5-Fluorouracil] (first compound max 10 µM, 7x7, partner max 20 µM) | -0.0286 | -0.001 | -0.0149 | -0.0445 | 0.0235 | -0.0006 | -0.0447 | -0.0047
Cc1cc2ncnn2cc1Nc1ncc2c(n1)n(C1CCOCC1)c(=O)n2C [AZD7648] + COc1cc([C@@H]2c3cc4c(cc3[C@@H](O[C@@H]3O[C@@H]5CO[C@@H](C)O[C@H]5[C@H](O)[C@H]3O)[C@H]3COC(=O)[C@H]23)OCO4)cc(OC)c1O [Etoposide] (first compound max 10 µM, 7x7, partner max 10 µM) | -0.0214 | 0.0896 | 0.119 | 0.0847 | 0.056 | -0.0081 | 0.119 | 0.0438
CN(CCO)CC[C@H](CSc1ccccc1)Nc1ccc(S(=O)(=O)NC(=O)c2ccc(N3CCC([C@@H](O)c4ccccc4-c4ccc(Cl)cc4)CC3)cc2)cc1S(=O)(=O)C(F)(F)F [AZD4320] + CC(=O)O[C@H]1C(=O)[C@@]2(C)[C@H]([C@H](OC(=O)c3ccccc3)[C@]3(O)C[C@H](OC(=O)[C@H](O)[C@@H](NC(=O)c4ccccc4)c4ccccc4)C(C)=C1C3(C)C)[C@]1(OC(C)=O)CO[C@@H]1C[C@@H]2O [Paclitaxel] (first compound max 1 µM, 7x7, partner max 3 µM) | 0.113 | 0.0045 | 0.0759 | -0.0038 | 0.185 | 0.0662 | 0.0387 | 0.0574
CN(CCO)CC[C@H](CSc1ccccc1)Nc1ccc(S(=O)(=O)NC(=O)c2ccc(N3CCC([C@@H](O)c4ccccc4-c4ccc(Cl)cc4)CC3)cc2)cc1S(=O)(=O)C(F)(F)F [AZD4320] + Nc1ccn([C@@H]2O[C@H](CO)[C@@H](O)C2(F)F)c(=O)n1 [Gemcitabine] (first compound max 1 µM, 7x7, partner max 0.3 µM) | -0.0542 | -0.0074 | 0.0047 | -0.0457 | -0.0024 | -0.0192 | 0.0194 | -0.0082
N#Cc1cnc(Nc2cc(NC[C@H]3CNCCO3)c(C(F)(F)F)cn2)cn1 [SRA737] + C=CCn1c(=O)c2cnc(Nc3ccc(N4CCN(C)CC4)cc3)nc2n1-c1cccc(C(C)(C)O)n1 [AZD1775] (first compound max 10 µM, partner max 1 µM) | -0.0409 | 0.099 | 0.0455 | 0.0473 | 0.0171 | 0.0027 | 0.155 | -0.0375
